Source: PMC11702208 (RSC Advances, 2025)

Tests used:
IGROV1 = assay: NCI cytotoxicity screen; format: cell-based, human
K-562 = assay: cells; conditions: Homo sapiens, K562
TK-10 = assay: NCI cytotoxicity screen; format: cell-based, human
[1] = system: Leukemia subpanel tumor cell lines; assay: NCI cytotoxicity screen, subpanel; format: cell-based, human
LOX IMVI = assay: NCI cytotoxicity screen; format: cell-based, human
RPMI-8226 = assay: NCI cytotoxicity screen; format: cell-based, human
OVCAR-8 = assay: NCI cytotoxicity screen; format: cell-based, human
RXF 393 = assay: NCI cytotoxicity screen; format: cell-based, human
CCRF-CEM = assay: NCI cytotoxicity screen; format: cell-based, human
HS 578T = assay: NCI cytotoxicity screen; format: cell-based, human
EKVX = assay: NCI cytotoxicity screen; format: cell-based, human
HL-60(TB) = assay: cells; conditions: Homo sapiens
MDA-MB-468 = assay: NCI cytotoxicity screen; format: cell-based, human
M14 = assay: NCI cytotoxicity screen; format: cell-based, human
UO-31 = assay: NCI cytotoxicity screen; format: cell-based, human
[2] = system: Melanoma subpanel tumor cell lines; assay: NCI cytotoxicity screen, subpanel; format: cell-based, human
MDA-MB-435 = assay: NCI cytotoxicity screen; format: cell-based, human
SF-539 = assay: NCI cytotoxicity screen; format: cell-based, human
[3] = system: Prostate cancer subpanel tumor cell lines; assay: NCI cytotoxicity screen, subpanel; format: cell-based, human
SNB-75 = assay: NCI cytotoxicity screen; format: cell-based, human
SNB-19 = assay: NCI cytotoxicity screen; format: cell-based, human
PC-3 = assay: NCI cytotoxicity screen; format: cell-based, human
U251 = assay: NCI cytotoxicity screen; format: cell-based, human; conditions: U-251
[4] = system: NSC lung cancer subpanel tumor cell lines; assay: NCI cytotoxicity screen, subpanel; format: cell-based, human
ACHN = assay: NCI cytotoxicity screen; format: cell-based, human
[5] = system: CNS cancer subpanel tumor cell lines; assay: NCI cytotoxicity screen, subpanel; format: cell-based, human
NCI-H460 = assay: NCI cytotoxicity screen; format: cell-based, human
OVCAR-4 = assay: NCI cytotoxicity screen; format: cell-based, human
HOP-92 = assay: NCI cytotoxicity screen; format: cell-based, human; conditions: 10.0 μM one dose
SF-295 = assay: NCI cytotoxicity screen; format: cell-based, human
MCF7 = assay: NCI cytotoxicity screen; format: cell-based, human
HCT-116 = assay: NCI cytotoxicity screen; format: cell-based, human
SK-MEL-28 = assay: NCI cytotoxicity screen; format: cell-based, human
MOLT-4 = assay: NCI cytotoxicity screen; format: cell-based, human
HCC-2998 = assay: NCI cytotoxicity screen; format: cell-based, human
NCI-H322M = assay: NCI cytotoxicity screen; format: cell-based, human
OVCAR-5 = assay: NCI cytotoxicity screen; format: cell-based, human
DU-145 = assay: NCI cytotoxicity screen; format: cell-based, human
786-0 = assay: NCI cytotoxicity screen; format: cell-based, human
SK-OV-3 = assay: NCI cytotoxicity screen; format: cell-based, human
CAKI-1 = assay: NCI cytotoxicity screen; format: cell-based, human
SK-MEL-2 = assay: NCI cytotoxicity screen; format: cell-based, human
COLO 205 = assay: NCI cytotoxicity screen; format: cell-based, human
HOP-62 = assay: NCI cytotoxicity screen; format: cell-based, human
NCI-H23 = assay: NCI cytotoxicity screen; format: cell-based, human
HT29 = assay: NCI cytotoxicity screen; format: cell-based, human; conditions: HT-29
[6] = subpanel value, Prostate cancer
[7] = subpanel value, NSC lung cancer

Compound: CCN(CC)c1ccc(C=NNC(=O)CSc2nc3ccccc3c(=O)n2Cc2ccc(S(N)(=O)=O)cc2)c(O)c1 [Compound 5, 4-((2-((2-(2-(4-(Diethylamino)-2-hydroxybenzylidene)hydrazineyl)-2-oxoethyl)thio)-4-oxoquinazolin-3(4H)-yl)methyl)benzenesulfonamide]
- GI % (IGROV1; 10.0 μM one dose, IGROV1): 74%
- GI50 (IGROV1; Homo sapiens, IGROV-1): 785 nM
- GI50 (K-562): 592 nM
- GI % (TK-10; 10.0 μM one dose): 85%
- GI50 (TK-10; Homo sapiens): 1660 nM
- CC50 ([1]; Homo sapiens, read-out: LC50): > 100000 nM
- GI50 ([1]; Homo sapiens, subpanel value, Leukemia): 400 nM
- GI50 ([1]; subpanel value, Leukemia): 384 nM
- TGI ([1]; subpanel value, Leukemia): 68371 nM
- GI % (LOX IMVI; 10.0 μM one dose): 99%
- GI50 (LOX IMVI; Homo sapiens): 387 nM
- GI % (RPMI-8226; 10.0 μM one dose): 83%
- GI50 (RPMI-8226; Homo sapiens): 521 nM
- GI % (OVCAR-8; 10.0 μM one dose): 80%
- GI50 (OVCAR-8; Homo sapiens): 932 nM
- GI % (RXF 393; 10.0 μM one dose): 58%
- GI50 (RXF 393; Homo sapiens): 2500 nM
- GI % (CCRF-CEM; 10.0 μM one dose): 90%
- GI50 (CCRF-CEM; Homo sapiens): 196 nM
- GI % (HS 578T; 10.0 μM one dose, HS-578T): 37%
- GI50 (HS 578T; Homo sapiens, Hs-578T): 2110 nM
- GI % (EKVX; 10.0 μM one dose): 65%
- GI50 (EKVX; Homo sapiens): 650 nM
- GI50 (HL-60(TB)): 412 nM
- GI % (MDA-MB-468; 10.0 μM one dose): 110%
- GI50 (MDA-MB-468; Homo sapiens): 524 nM
- GI % (M14; 10.0 μM one dose): 96%
- GI50 (M14; Homo sapiens): 452 nM
- GI % (UO-31; 10.0 μM one dose): 54%
- GI50 (UO-31; Homo sapiens): 2890 nM
- CC50 ([2]; Homo sapiens, read-out: LC50): > 100000 nM
- GI50 ([2]; Homo sapiens, subpanel value, Melanoma): 1500 nM
- GI50 ([2]; subpanel value, Melanoma): 1500 nM
- TGI ([2]; subpanel value, Melanoma): 59090 nM
- GI % (MDA-MB-435; 10.0 μM one dose): 87%
- GI50 (MDA-MB-435; Homo sapiens): 2070 nM
- GI % (SF-539; 10.0 μM one dose): 72%
- GI50 (SF-539; Homo sapiens): 1260 nM
- CC50 ([3]; Homo sapiens, read-out: LC50): > 100000 nM
- GI50 ([3]; Homo sapiens, subpanel value, Prostate cancer): 900 nM
- GI50 [3, 6]: 886 nM
- TGI [3, 6]: c (Compounds showed values > 100 μM)
- GI % (SNB-75; 10.0 μM one dose): 62%
- GI50 (SNB-75; Homo sapiens): 2860 nM
- GI % (SNB-19; 10.0 μM one dose): 59%
- GI50 (SNB-19; Homo sapiens): 2100 nM
- GI % (PC-3; 10.0 μM one dose): 51%
- GI50 (PC-3; Homo sapiens): 829 nM
- GI % (U251; 10.0 μM one dose): 76%
- GI50 (U251; Homo sapiens): 510 nM
- CC50 ([4]; Homo sapiens, read-out: LC50): > 100000 nM
- GI50 ([4]; Homo sapiens, subpanel value, NSC lung cancer): 1100 nM
- GI50 [4, 7]: 1060 nM
- TGI [4, 7]: c (Compounds showed values > 100 μM)
- GI % (ACHN; 10.0 μM one dose): 67%
- GI50 (ACHN; Homo sapiens): 1580 nM
- CC50 ([5]; Homo sapiens, read-out: LC50): > 100000 nM
- GI50 ([5]; Homo sapiens, subpanel value, CNS cancer): 1500 nM
- GI50 ([5]; subpanel value, CNS cancer): 1490 nM
- TGI ([5]; subpanel value, CNS cancer): c (Compounds showed values > 100 μM)
- GI % (NCI-H460; 10.0 μM one dose): 94%
- GI50 (NCI-H460; Homo sapiens): 424 nM
- GI % (OVCAR-4; 10.0 μM one dose, IGROV-4): 88%
- GI50 (OVCAR-4; Homo sapiens, OVCAR-4): 311 nM
- GI % (HOP-92): 42%
- GI % (SF-295; 10.0 μM one dose): 80%
- GI50 (SF-295; Homo sapiens): 1470 nM
- GI % (MCF7; 10.0 μM one dose, MCF-7): 87%
- GI50 (MCF7; Homo sapiens, MCF7): 457 nM
- GI % (HCT-116; 10.0 μM one dose): 79%
- GI50 (HCT-116; Homo sapiens): 363 nM
- GI % (SK-MEL-28; 10.0 μM one dose): 67%
- GI50 (SK-MEL-28; Homo sapiens): 1620 nM
- GI % (MOLT-4; 10.0 μM one dose): 89%
- GI50 (MOLT-4; Homo sapiens): 372 nM
- GI % (HCC-2998; 10.0 μM one dose, HCC-2998): 80%
- GI50 (HCC-2998; Homo sapiens, HCC 2998): 882 nM
- GI % (NCI-H322M; 10.0 μM one dose): 67%
- GI50 (NCI-H322M; Homo sapiens): 575 nM
- GI % (OVCAR-5; 10.0 μM one dose, IGROV-5): 45%
- GI50 (OVCAR-5; Homo sapiens, OVCAR-5): 2090 nM
- GI % (DU-145; 10.0 μM one dose): 62%
- GI50 (DU-145; Homo sapiens): 944 nM
- GI % (786-0; 10.0 μM one dose): 68%
- GI50 (786-0; Homo sapiens): 1840 nM
- GI % (SK-OV-3; 10.0 μM one dose): 79%
- GI50 (SK-OV-3; Homo sapiens): 1320 nM
- GI % (CAKI-1; 10.0 μM one dose): 69%
- GI50 (CAKI-1; Homo sapiens): 1020 nM
- GI % (SK-MEL-2; 10.0 μM one dose): 90%
- GI50 (SK-MEL-2; Homo sapiens): 2410 nM
- GI % (COLO 205; 10.0 μM one dose, COLO-205): 102%
- GI50 (COLO 205; Homo sapiens, COLO 205): 1510 nM
- GI % (HOP-62; 10.0 μM one dose): 79%
- GI50 (HOP-62; Homo sapiens): 961 nM
- GI % (NCI-H23; 10.0 μM one dose): 61%
- GI50 (NCI-H23; Homo sapiens): 1960 nM
- GI % (HT29; 10.0 μM one dose): 68%
- GI50 (HT29; Homo sapiens): 3010 nM
